Experimental data published in patent US5646132A, “2(1H)-quinolone compounds” (Adir et Compagnie, priority 1993, dated 1997).

What was measured:
AMPA receptor = assay: Membrane binding, [3H]-AMPA, rat cortex homogenate; conditions: rat cortex membranes
Experimental: This is carried out using a rat cortex homogenate. The membrane pellet is prepared in a conventional manner in a sucrose buffer by differential centrifugations, and then frozen until used. After thawing, […] of membrane homogenate are taken up in a Tris-HCl (30 mM), CaCl2 (2.5 mM) buffer, pH 7.4, and incubated at 4° C. for 30 minutes in the presence of 25 μl of [^3 H]-AMPA or [^3 H]-kainate and 25 μl of the test product. Non-specific binding is determined in the presence of 10 μM quisqualate (AMPA binding) or 10 μM kainic acid (kainate binding). The membranes are then isolated by filtration. After drying of the filters, the radioactivity is measured by scintillation.

[1] = test system: Kainate current (glutamate receptors; AMPA/kainate receptors); assay: Currents induced by kainate in Xenopus oocytes expressing the glutamate receptors; assay type: cell-based, rat; conditions: kainate 100 μM, read-out: IC50, inhibition of kainate current
Experimental: 2/ Currents induced by EAA in Xenopus oocytes
Xenopus oocytes are injected with 50 ng of poly(A)^+ mRNA isolated from rat cerebral cortex, and incubated for 2 to 3 days at 18° C. to permit protein expression therein. The inward currents induced by EAA are measured in a medium of composition: NaCl (82.5 mM), KCl (2.5 mM), CaCl2 (1 mM), MgCl2 (1 mM), NaH2 PO4 (1 mM), HEPES (5 mM), pH 7.4, by the 2-electrode voltage-clamp method (potential=-60 mV). For measurement of the currents induced by NMDA and glycine, MgCl2 is absent from the medium and CaCl2 is brought to a concentration of 2 mM. The EAA agonists that induce the currents are used at the following concentrations: kainate: 100 μm; AMPA: 30 μM; glycine/NMDA: 3/30 μM. The test product is applied 30 seconds before and during the application of the agonist.

[2] = test system: neurotoxic excitatory currents in the hippocampus; assay: Neurotoxic excitatory currents induced in the hippocampus by stimulation of the glutamatergic pathways (Schaeffer's collaterals); conditions: read-out: IC50 with respect to neurotoxic excitatory currents induced in the hippocampus
Experimental: This inhibition is strong and constant since the same IC50 (2 μM) is found with respect to neurotoxic excitatory currents induced in the hippocampus by stimulation of the glutamatergic pathways (Schaeffer's collaterals).

[3] = Audiogenic convulsions test in DBA/2 mice; assay type: in vivo, mouse (DBA/2); conditions: mouse, in vivo, IP vs PO
Excerpt: (§1) Furthermore, the compounds of the invention have an in vivo activity which is unique and exceptional for the products of this class. In fact, in the audiogenic convulsions test in DBA/2 mice carried out according to the methodology described by CROUCHER et al.

[4] = test system: audiogenic (glutamate-dependent) convulsions in DBA/2 mice; assay: Audiogenic convulsions test in DBA/2 mice; assay type: in vivo, mouse (DBA/2); conditions: for activity by the oral route, audiogenic convulsions: oral administration
Excerpt: as §1

[5] = test system: hippocampal pyramidal neurons (CA1); assay: Transient global cerebral ischemia in Gerbil; assay type: in vivo
Experimental: 1) Transient global cerebral ischemia in Gerbil
Transient and complete arrest of cerebral blood flow which is observed in clinical situation during a cardiac infarct, gives rise to a delayed death of specific vulnerable neurons, especially in hippocampus, a crucial cerebral region for cognitive functions. This phenomenon can be experimentally reproduced after transient occlusion of common carotid arteries.
In Gerbil, a transient occlusion (5 minutes) of carotid arteries gives rise to a total loss of hippocampal pyramidal neurons (CA1). This death can be observed only 3 or 4 days after ischemia. Numerous studies have shown that it could be due essentially to an excessive release of glutamate during the post-ischemic reperfusion.
NBQX (30 mg/kg IP) protects 50% of neurons in case of treatment 30 minutes before then b.i.d. after ischemia until histological measurement 4 days later.

cortical infarct = assay: Permanent focal ischemia in mice (MCA occlusion); assay type: in vivo
Experimental: 2) Permanent focal ischemia in mice
This ischemia can be perfectly reproduced in mice by electrocoagulation of MCA, giving rise to a well delimited cortical infarct 24 hours later. This infarct can be easily measured by histological examination.

[6] = 30 mg/kg IP, 30 minutes before then b.i.d. after ischemia, histology 4 days later
[7] = 30 mg/kg IP before then 3 hours after ischemia, significant decrease
[8] = 30 mg/kg, curative only (5 minutes, 1 hour and 2 hours after MCA occlusion)

| SMILES | Ki (AMPA receptor) | IC50 [1] | IC50 [2] | bioavailability index (ID50 IP/ID50 PO) [3] | ED50 ([4]; Mus musculus, IP administration, read-out: ID50, audiogenic convulsions) | activity by the oral route, audiogenic convulsions [4] | protection of hippocampal neurons ([5]; 10 mg/kg IP, same conditions) | protection from neuronal death (in words) [5, 6] | change of infarct volume (cortical infarct; [7]) | change of infarct volume (cortical infarct; [8]) | protection of neurons [5, 6] | effect on infarct volume (in words) (cortical infarct; [8]) |
| --- | --- | --- | --- | --- | --- | --- | --- | --- | --- | --- | --- | --- |
| O=c1[nH]c2cc(Cl)c(Cl)cc2cc1P(=O)(O)O [Example 2, 6,7-Dichloro-2(1H)-quinolone-3-phosphonic acid] | 900 nM | 2000 nM | 2000 nM | ~0.3 | 18.7 mg/kg | also after oral administration | 50% | protects completely from neuronal death | -26% | -23% | – | – |
| N#Cc1cc2[nH]c(=O)c(=O)[nH]c2cc1[N+](=O)[O-] [CNQX, 6-cyano-7-nitro-2,3-quinoxalinedione, reference compound] | 70 nM | – | – | – | – | do not have any activity by the oral route | – | – | – | – | – | – |
| NS(=O)(=O)c1cccc2c1c([N+](=O)[O-])cc1[nH]c(=O)c(=O)[nH]c12 [NBQX, 6-nitro-7-sulfamoylbenzo[f]quinoxaline-2,3-dione, reference compound] | – | – | – | – | – | do not have any activity by the oral route | – | – | -26% | – | 50% | remains ineffective |
